The values below are quoted from earlier work in patent publication US8273706B2, “Isobarically labeled analytes and fragment ions derived therefrom” (DH Technologies Development Pte. Ltd., priority 2004, dated 2012).

Structures are written as SMILES.

In general, pKa refers to the negative logarithm of the acid dissociation constant.

For the data set the following is noted: alcohol (leaving group) whose trifluoroacetate ester forms the active ester of N-methyl piperazine acetic acid.
Consider `O=[N+]([O-])c1cccc(O)c1` [3-NP, 3-nitrophenol], for which the pKa is 8.33.

On to `O=c1c2ccccc2nnn1O` [Dhbt, 3-hydroxy-1,2,3-benzotriazine-4(3H)-one], for which the pKa is given as 7.78.

For `O=C1CCCN1O` [NHP, N-hydroxypyrrolidinone], the pKa is on record as 9.38.

In the case of `O=C1CCC(=O)N1O` [NHS, N-hydroxysuccinimide], the pKa is reported as 7.80.

As for `Oc1c(Cl)c(Cl)c(Cl)c(Cl)c1Cl` [Pcp, pentachlorophenol], the pKa is 4.68.
